Reference: paper PMC11187827 (Journal of natural products, 2020)

Tests used:
[1] = target: SERT (serotonin transporter) (Homo sapiens, UniProt P31645); test: receptor binding assay
[2] = target: NET (norepinephrine transporter) (Homo sapiens, UniProt P23975); test: receptor binding assay
male Swiss Webster mice [3] = test: forced-swim test; type: in vivo, mouse; settings: 20 mg/kg, i.p., relative to desipramine (20 mg/kg)
male Swiss Webster mice [4] = test: locomotor activity test; type: in vivo, mouse; settings: 20 mg/kg, i.p.
[5] = target: DAT (dopamine transporter) (Homo sapiens, UniProt Q01959); test: receptor binding assay
sigma-2 receptor (σ 2) = target: T1, sigma-2 receptor (σ 2) (Rattus norvegicus, UniProt Q5U3Y7); test: receptor binding assay
T1 sequence (Q5U3Y7 1-176): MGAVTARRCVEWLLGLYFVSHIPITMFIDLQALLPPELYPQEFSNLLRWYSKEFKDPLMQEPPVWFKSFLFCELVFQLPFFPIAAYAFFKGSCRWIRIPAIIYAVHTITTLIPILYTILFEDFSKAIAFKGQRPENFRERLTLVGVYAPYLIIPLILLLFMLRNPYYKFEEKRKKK

Chain of NET (norepinephrine transporter) (P23975 whole entry): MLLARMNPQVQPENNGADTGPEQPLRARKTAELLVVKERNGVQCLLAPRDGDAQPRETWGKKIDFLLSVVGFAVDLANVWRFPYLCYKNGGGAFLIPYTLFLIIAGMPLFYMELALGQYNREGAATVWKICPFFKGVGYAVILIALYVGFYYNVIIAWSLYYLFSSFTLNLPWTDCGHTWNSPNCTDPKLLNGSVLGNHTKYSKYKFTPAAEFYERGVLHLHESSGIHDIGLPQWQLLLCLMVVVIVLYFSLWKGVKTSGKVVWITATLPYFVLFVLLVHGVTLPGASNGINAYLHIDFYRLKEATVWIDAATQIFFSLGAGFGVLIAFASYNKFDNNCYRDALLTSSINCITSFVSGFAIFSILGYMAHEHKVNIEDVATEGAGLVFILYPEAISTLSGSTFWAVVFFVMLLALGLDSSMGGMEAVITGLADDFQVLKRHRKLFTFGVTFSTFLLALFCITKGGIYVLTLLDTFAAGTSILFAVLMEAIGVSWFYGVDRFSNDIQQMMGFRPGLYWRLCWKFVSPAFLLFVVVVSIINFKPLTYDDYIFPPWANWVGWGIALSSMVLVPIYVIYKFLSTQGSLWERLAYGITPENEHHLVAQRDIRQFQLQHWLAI
Chain of DAT (dopamine transporter) (Q01959 whole entry, species assumed): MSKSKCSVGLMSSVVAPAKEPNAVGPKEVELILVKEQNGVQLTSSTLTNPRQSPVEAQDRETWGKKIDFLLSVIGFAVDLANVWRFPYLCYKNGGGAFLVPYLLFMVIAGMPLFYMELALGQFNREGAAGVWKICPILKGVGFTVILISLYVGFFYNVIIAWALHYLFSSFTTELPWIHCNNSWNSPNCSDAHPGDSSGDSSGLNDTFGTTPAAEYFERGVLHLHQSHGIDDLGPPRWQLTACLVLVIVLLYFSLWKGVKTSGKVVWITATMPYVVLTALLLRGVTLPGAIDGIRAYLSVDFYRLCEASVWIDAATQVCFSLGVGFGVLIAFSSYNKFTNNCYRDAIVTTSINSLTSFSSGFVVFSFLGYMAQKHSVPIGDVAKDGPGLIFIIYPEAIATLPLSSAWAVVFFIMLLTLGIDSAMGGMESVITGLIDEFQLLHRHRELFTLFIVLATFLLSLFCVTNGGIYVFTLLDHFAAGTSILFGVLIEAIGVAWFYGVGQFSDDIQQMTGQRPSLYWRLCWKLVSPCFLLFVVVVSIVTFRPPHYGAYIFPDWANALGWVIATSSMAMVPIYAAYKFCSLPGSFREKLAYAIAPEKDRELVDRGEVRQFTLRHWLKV
Chain of SERT (serotonin transporter) (P31645 whole entry, species assumed): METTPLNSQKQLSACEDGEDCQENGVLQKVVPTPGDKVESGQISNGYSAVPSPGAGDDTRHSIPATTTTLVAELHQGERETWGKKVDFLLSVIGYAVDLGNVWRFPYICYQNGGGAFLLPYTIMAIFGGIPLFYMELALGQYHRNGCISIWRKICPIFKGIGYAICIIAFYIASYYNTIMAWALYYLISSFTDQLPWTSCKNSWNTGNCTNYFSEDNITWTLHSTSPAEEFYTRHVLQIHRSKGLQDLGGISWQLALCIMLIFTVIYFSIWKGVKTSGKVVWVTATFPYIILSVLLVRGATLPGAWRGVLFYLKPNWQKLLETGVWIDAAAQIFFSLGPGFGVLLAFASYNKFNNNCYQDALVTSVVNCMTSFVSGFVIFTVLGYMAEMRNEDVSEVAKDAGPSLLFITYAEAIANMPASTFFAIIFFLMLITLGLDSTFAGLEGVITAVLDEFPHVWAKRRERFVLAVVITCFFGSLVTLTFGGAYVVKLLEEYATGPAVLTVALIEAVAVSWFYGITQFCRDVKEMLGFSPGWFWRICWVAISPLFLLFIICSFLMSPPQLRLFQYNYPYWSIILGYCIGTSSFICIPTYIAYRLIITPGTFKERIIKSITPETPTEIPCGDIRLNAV

Cc1nccc2c1C(C)(C)Nc1cc(Br)ccc1-2 [Veranamine]
affinity for serotonin transporter [1]: no affinity | affinity for norepinephrine transporter [2]: no affinity | immobility time in mouse forced-swim test (male Swiss Webster mice [3]): decreasing the immobility time significantly | locomotor activity (nonspecific stimulant action) (male Swiss Webster mice [4]): did not demonstrate nonspecific stimulant action | affinity for dopamine transporter [5]: no affinity | binding to the sigma-2 receptor (sigma-2 receptor (σ 2)): did not bind
